Results from ChEMBL document CHEMBL1201862, “PubChem BioAssay data set” (2004).
Active and inactive are the calls of the source.

Tests used:
[1] = molecular target: Peroxisome proliferator-activated receptor gamma/Nuclear receptor corepressor 2 (Homo sapiens, UniProt P37231+Q9Y618); experiment: Counterscreen for NR2E3 inverse agonists: TR-FRET-based biochemical high throughput dose response assay to identify inverse agonists of the interaction between peroxisome proliferator-activated receptor gamma (PPARg) and nuclear receptor co-repressor 2 (NCOR2).; type: functional
[2] = molecular target: Photoreceptor-specific nuclear receptor (Homo sapiens, UniProt Q9Y5X4); experiment: ligands suppressing NR2E3 nuclear receptor activity – biochemical, TR-FRET, dose response (AID 463256); type: functional
Chain of Photoreceptor-specific nuclear receptor (Q9Y5X4 whole entry): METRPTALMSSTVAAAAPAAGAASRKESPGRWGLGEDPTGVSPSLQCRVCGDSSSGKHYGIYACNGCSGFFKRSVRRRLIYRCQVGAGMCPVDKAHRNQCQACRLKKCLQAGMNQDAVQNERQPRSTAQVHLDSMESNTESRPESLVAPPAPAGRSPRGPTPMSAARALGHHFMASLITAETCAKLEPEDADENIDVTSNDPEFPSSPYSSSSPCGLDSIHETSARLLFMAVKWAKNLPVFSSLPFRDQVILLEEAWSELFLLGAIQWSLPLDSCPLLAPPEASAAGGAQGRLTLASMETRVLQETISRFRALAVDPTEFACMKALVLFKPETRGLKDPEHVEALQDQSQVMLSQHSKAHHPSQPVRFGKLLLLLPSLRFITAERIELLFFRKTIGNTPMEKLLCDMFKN

[3] = molecular target: Peroxisome proliferator-activated receptor gamma/Nuclear receptor coactivator 2 (Homo sapiens, UniProt P37231); type: functional;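 further: agonist potency for raising coactivator recruitment to the receptor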
Chain of Peroxisome proliferator-activated receptor gamma/Nuclear receptor coactivator 2 (P37231 whole entry): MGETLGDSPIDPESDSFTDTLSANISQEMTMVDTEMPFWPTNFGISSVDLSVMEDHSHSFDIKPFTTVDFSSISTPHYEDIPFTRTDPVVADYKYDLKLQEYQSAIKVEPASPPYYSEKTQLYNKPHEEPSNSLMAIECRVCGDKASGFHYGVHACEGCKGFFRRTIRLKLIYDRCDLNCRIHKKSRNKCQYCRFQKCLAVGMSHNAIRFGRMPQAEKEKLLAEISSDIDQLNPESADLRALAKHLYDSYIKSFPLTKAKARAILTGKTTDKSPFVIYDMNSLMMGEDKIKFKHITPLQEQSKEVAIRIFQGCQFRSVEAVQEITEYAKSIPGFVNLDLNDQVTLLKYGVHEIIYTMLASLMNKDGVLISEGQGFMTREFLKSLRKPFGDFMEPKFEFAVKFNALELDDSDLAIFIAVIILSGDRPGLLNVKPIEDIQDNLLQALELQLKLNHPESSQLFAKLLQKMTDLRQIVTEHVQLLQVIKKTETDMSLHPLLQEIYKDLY
Chain of Peroxisome proliferator-activated receptor gamma/Nuclear receptor coactivator 2 (Q15596 whole entry, further chain): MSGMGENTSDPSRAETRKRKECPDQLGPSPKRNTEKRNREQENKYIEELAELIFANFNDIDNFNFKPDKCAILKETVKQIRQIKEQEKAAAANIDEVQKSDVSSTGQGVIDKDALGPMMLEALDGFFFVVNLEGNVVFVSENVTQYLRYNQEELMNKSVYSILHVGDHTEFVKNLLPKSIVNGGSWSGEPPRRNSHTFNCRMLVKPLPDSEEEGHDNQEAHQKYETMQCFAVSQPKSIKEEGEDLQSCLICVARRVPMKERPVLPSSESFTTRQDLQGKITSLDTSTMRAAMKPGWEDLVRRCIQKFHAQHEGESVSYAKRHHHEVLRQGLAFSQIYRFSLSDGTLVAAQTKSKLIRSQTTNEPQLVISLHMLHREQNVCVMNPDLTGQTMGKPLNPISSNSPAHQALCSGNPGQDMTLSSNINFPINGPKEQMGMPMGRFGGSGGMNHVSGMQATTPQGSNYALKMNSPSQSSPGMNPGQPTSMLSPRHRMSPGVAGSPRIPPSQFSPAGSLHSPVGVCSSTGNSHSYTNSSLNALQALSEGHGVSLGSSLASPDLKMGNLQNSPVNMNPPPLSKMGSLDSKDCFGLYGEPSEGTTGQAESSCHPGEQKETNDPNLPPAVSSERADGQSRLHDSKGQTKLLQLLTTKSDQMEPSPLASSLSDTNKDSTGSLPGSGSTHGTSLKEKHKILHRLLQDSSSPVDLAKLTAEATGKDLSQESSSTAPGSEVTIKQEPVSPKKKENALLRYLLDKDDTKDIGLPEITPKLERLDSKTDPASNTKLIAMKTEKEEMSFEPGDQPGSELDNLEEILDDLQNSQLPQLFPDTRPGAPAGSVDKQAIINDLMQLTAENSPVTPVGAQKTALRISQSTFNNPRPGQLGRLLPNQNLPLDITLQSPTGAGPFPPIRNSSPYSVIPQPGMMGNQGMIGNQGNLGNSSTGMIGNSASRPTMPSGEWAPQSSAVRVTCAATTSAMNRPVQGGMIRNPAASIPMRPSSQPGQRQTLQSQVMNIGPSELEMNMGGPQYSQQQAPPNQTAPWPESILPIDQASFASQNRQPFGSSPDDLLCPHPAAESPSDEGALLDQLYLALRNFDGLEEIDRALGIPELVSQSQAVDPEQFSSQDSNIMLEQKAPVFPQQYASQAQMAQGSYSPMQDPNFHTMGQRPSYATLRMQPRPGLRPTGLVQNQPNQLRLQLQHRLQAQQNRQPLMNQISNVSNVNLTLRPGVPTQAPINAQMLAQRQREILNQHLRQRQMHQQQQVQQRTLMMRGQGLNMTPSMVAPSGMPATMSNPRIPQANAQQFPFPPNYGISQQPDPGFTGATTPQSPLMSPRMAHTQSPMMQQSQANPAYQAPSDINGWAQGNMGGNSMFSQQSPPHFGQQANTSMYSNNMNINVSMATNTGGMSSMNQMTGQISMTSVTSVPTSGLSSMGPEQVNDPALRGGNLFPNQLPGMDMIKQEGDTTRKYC

[4] = molecular target: Peroxisome proliferator-activated receptor gamma/Nuclear receptor coactivator 1 (Homo sapiens, UniProt P37231); type: functional;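 further: agonist potency as compounds enhance coactivator SRC-1 recruitment to PPARgamma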
[5] = molecular target: Peroxisome proliferator-activated receptor gamma/Nuclear receptor coactivator 3 (Homo sapiens, UniProt P37231); type: functional;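 further: agonist potency for raising coactivator recruitment to the receptor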
Chain of Peroxisome proliferator-activated receptor gamma/Nuclear receptor coactivator 3 (P37231 whole entry): as the sequence (P37231 whole entry) above
Chain of Peroxisome proliferator-activated receptor gamma/Nuclear receptor coactivator 3 (Q9Y6Q9 whole entry, further chain): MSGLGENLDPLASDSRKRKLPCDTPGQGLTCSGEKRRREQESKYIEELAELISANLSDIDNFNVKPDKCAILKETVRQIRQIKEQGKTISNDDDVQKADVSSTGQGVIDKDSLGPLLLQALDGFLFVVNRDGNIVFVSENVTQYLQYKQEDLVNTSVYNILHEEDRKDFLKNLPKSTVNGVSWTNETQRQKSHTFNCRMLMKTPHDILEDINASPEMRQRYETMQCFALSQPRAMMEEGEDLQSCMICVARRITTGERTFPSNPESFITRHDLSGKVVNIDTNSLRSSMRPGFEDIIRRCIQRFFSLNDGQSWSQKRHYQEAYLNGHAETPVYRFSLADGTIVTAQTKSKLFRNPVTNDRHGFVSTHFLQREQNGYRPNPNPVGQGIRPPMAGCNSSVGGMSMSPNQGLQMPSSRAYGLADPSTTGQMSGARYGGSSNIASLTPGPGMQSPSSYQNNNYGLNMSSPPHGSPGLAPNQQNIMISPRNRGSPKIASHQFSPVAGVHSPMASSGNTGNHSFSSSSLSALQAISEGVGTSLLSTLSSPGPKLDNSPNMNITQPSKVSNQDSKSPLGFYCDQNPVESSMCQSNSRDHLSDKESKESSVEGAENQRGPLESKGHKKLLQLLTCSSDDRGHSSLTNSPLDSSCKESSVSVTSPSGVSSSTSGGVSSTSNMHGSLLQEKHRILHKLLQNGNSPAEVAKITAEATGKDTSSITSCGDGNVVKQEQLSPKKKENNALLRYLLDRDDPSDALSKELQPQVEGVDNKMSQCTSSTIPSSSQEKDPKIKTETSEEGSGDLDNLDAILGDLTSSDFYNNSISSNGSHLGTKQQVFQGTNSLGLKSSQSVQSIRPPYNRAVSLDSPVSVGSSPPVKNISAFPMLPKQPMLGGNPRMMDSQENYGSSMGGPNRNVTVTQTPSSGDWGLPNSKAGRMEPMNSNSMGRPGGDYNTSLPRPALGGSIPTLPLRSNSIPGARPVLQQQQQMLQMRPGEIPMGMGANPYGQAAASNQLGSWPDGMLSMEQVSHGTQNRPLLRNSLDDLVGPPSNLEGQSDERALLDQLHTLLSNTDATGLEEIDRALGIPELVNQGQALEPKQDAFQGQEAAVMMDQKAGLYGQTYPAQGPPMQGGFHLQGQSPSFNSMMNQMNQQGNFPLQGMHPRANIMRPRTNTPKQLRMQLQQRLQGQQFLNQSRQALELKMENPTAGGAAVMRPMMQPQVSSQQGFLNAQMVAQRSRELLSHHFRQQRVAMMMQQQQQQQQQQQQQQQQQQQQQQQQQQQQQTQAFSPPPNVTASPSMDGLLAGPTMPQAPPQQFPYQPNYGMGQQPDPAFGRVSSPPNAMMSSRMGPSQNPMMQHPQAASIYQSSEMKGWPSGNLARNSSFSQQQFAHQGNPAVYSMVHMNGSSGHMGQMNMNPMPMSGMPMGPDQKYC

[6] = viability inhibitors of stage V gametocytes – luminescence, dose response (AID 1117278); type: functional, cell-based;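 further: gametocytes exposed to compound for 24 hours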
[7] = viability loss in human Jurkat cells – cell-based, luminescence, cytotoxicity control for P. falciparum gametocyte viability project, dose response (AID 1117277); type: functional;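 further: potency reflects loss of cellular ATP meaning fewer viable cells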
[8] = TB: CFU replicating Measured in Microorganism System Using Imaging - 7108-05_Inhibitor_Dose_DryPowder_Activity_Set2.; type: functional
[9] = antimalarial activity against Dd2 parasites – SYBR Green fluorescence, erythrocytes, dry powder, set 2, dose response (AID 1159574); type: functional, cell-based
Leucine aminopeptidase = molecular target: T1, Leucine aminopeptidase (Plasmodium falciparum 3D7, UniProt Q8IL11); experiment: P. falciparum M17LAP inhibitors, primary screen, biochemical, fluorogenic H-Leu-NHMec substrate, 1536-well (AID 1619); type: functional
T1 sequence (Q8IL11 whole entry): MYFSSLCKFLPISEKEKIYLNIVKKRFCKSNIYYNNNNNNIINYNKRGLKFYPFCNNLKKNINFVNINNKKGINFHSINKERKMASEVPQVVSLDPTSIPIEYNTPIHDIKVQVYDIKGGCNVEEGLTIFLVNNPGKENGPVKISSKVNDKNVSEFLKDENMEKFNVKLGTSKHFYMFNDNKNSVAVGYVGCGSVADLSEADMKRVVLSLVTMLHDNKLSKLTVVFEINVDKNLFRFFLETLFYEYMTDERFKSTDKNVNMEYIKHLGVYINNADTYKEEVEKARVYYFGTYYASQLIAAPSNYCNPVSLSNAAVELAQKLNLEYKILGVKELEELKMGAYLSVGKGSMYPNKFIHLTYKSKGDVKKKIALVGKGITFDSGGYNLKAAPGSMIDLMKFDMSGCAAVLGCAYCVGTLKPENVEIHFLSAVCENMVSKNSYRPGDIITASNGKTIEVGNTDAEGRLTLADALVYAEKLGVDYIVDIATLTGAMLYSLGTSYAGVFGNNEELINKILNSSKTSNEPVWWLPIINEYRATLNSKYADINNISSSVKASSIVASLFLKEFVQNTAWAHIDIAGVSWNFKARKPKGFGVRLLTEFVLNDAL

[10] = molecular target: Solute carrier family 12 member 2/member 5 (Homo sapiens, UniProt P55011+Q9H2X9); experiment: KCC2 and NKCC1 inhibition by rubidium flux, cell-based, NKCC1 counter-screen (AID 1734); type: functional, HEK293
[11] = IC50 of insulin release inhibition, rat insulinoma INS-1E line, 5 mM glucose, cell-based (AID 1117331); type: functional
Transthyretin = Transthyretin (Homo sapiens, UniProt P02766); experiment: Luminescence-based cell-based high throughput dose response assay to identify activators of Transthyretin (TTR) transcription.; type: functional

## Cc1cccc(NC(=O)c2sc3nc(-c4ccc(F)cc4)cn3c2C)n1
[1]
  IC50: 1.18 µM (active)
[2]
  IC50: 1.17 µM (active)
[3]
  EC50: 12.3 µM (not active)
[4]
  EC50: 16.8 µM (not active)
[5]
  EC50: 22.5 µM (not active)

## COc1cc(S(=O)(=O)NC2CCCCC2)c(C)cc1C
[6]
  IC50: > 109 µM (inactive)
[7]
  IC50: > 83.3 µM (inactive)

## Cn1c(NC(=O)c2ccccc2)nc2c(F)cccc21
[8]
  AbsAC90: 160.65 µM

## COc1ccc(S(=O)(=O)N(C)C[C@H]2OCc3ccccc3-c3c(n(C)c4ccccc34)C(=O)N([C@@H](C)CO)C[C@H]2C)cc1
[9]
  AC50: 5.13 µM (active)

## Cc1ccc(Nc2nnc(SCC(=O)c3cc4ccccc4o3)s2)cc1C
Leucine aminopeptidase
  IC50: 19.8 µM (active)
[10]
  IC50: 0.64 µM (active)

## CN1CCN2c3ccccc3Cc3ccccc3C2C1 (stereo not drawn) [MIANSERIN]
[11]
  IC50: > 11.1 µM (inactive)

## Cc1nn(C)c(C(=O)N2CCc3ccccc32)c1Br
Transthyretin
  EC50: > 167 µM (inactive)
